Measured values: US20260306421A1, “SYSTEMS AND METHODS FOR TRANSDERMAN PATCH DELIVERY” (VITAMAX PATCH WHOLESALER LLC, priority 2022, published 2026)

Experiments:
[1] = Iron complex adhesive compatibility and loading screen; format: physicochemical
Description: Pre-formulation studies were performed to determine the compatibility of the iron complexes with a range of transdermal patch adhesives (Table 15).
The compatibility of the complexes with the patch adhesives was assessed by mixing and visually checking the clarity of the mixture.
In the adhesives that were computable with the iron complexes the maximum drug loading of the complexes in the adhesive following solvent evaporation was determined. This was achieved by mixing the drug, adhesive and co-solvents until a clear solution was obtained at different drug:adhesive ratios and placing few drops of the mixture onto the patch backing sheet, leaving it to dry for 3-4 h, and examining the formed film on the surface of the backings for evidence of drug crystals.
Following complete drying of the solvents, the adhesive layer was covered by a release liner, compressed, and then cut using 34 mm circular manual die cutter (FIG. 23).

[2] = Solubility of iron chloride hexahydrate and iron complexes (visual / assayed); format: physicochemical; details: visual (*)
Description: Due to the high number of test samples (6 complexes plus the starting material, iron chloride hexahydrate) a visual solubility screen was used to screen the solubility in a range of solvents. […] Quantitative determination was performed by either incubating the complex in excess in the solvent using a shaking 37° C. water bath for 48 h or sonicating it for 2 hours at 40° C. or leaving overnight on a 50° C. hot plate. Once incubation period was completed, the exact solubility in a particular solvent was assayed (using the iron assay) after centrifugation (i.e. assay iron content in the supernatant using the Ferrozine® assay).

[3] = Iron adhesive patch skin permeation and deposition; format: in vitro ADME, porcine; details: t-test p value, 0.5
Description: To perform the skin permeation studies, dermatomed skin (1 mm) was glued onto the receiver compartment of the Franz cell that contained 80:20 PG:water. A zero hour sample was taken from the receiver fluid, the patches were placed on top of the skin and held in place by a small weight (8.75 g). The patches that were tested were A2, A3, A4 (Table 16) as well as the existing commercial iron transdermal patch. After 24 hours, the receiver fluid was assayed using the quantitative iron assay and a compatible calibration in the same medium (80:20 PG:water) was used. The skin deposition was determined by removing the dermatomed skin from the donor compartment when the 24 h was completed, chopping into smaller pieces using scissors and incubating with the extraction fluid, ethanol. The samples were then transferred to Eppendorf tubes containing one stainless steel 5 mm bead and loaded into the TissuLyser II (Qiagen, Germany) for 30 min 30 Hz. The samples were centrifuged (5 min at 13,000 rpm) and supernatant assayed for iron content.

[4] = Solubility of zinc chloride and zinc complexes (visual / HPLC); format: physicochemical
Description: Accurate measurement of the solubility was then repeated for some of the solvent systems by HPLC. In the HPLC solubility studies, an excess of the test agents was loaded into 2 mL of each test solvent. The solutions were left stirring overnight at 32° C. […] The drug suspensions were then centrifuged, the supernatant diluted, and each sample concentration was measured using HPLC.

[5] = Franz cell porcine skin permeation and deposition of zinc from solutions; format: in vitro ADME; details: solution in PEG (6 mg/mL)
[6] = Zinc ethyl maltol reservoir co-solvent solubility screening; format: physicochemical; details: for Solubility in PEG400:PEG1000: 3 mL methanol
Description: Pre-formulation studies were completed to optimise the solubility of zinc ethyl maltol using a variety of co-solvents that could be applied to the skin, such as Transcutol and ethanol. Polymers such as PEG 1000, Natrsol M250, and PVP were used to aid the solubilisation process. The compatibility of the complex with the solvents was evaluated by examining the clarity of the mixture. Following the optimisation of the complex solubility, the reservoir patch was developed using the backing layer, drug in solution, and liner release layer. The backing used was 3M™ Scotchpak™ Polyester Backing Film Laminate 9730. Different liner release membranes were investigated including, regenerated cellulose (12-14 k molecular weight cut-off Medical International UK), nylon (0.20 μm, Whatman, UK), and CoTran 9728 (3M, Germany). A 200 μL aliquot of zinc ethyl maltol complex in solution was applied on the liner release membrane, then covered by the backing layer and all layers thermally sealed (HeatPress machine HP230B).
The solution left to evaporate overnight to form a supersaturated solution (Table 4). This solution was then loaded into the reservoir patch.

[7] = Zinc ethyl maltol adhesive suitability (solubility/compatibility) screening; format: physicochemical
Description: Pre-formulation studies were performed to determine the compatibility of zinc ethyl maltol with a variety of adhesives that could be used to manufacture a transdermal patch (Table 2). The compatibility of the zinc complexes with the patch excipients was evaluated by examining the clarity of the mixture upon mixing. […] Following patch optimisation, the optimised drug-adhesive solutions were cast in 10×10 cm^2 trays made of the patch backing (3M™ Scotchpak™ Polyester Backing Film Laminate 9730, 3M, Germany). An adequate volume of the adhesive was applied to achieve a target coating level of 8 mg/cm^2 (equivalent to 80 g/m^2). Following complete drying of the solvents, the adhesive layer was covered by an M3 Release liner (SCOTCHPAK 9755), compressed, and then cut using a 34 mm circular manual die cutter (SCP Super Cutting Press).

[8] = Franz cell porcine skin permeation and deposition of zinc from solutions; format: in vitro ADME; parameters: elemental zinc skin deposition: unit not given here
Description: Porcine skin permeation studies were performed to compare the permeation of zinc chloride and the zinc ethyl maltol complex. The permeation of zinc chloride vs zinc ethyl maltol from PG saturated solutions (zinc chloride and zinc ethyl maltol solutions in PG was 2.45 and 2.10 mg/mL, respectively) and permeation of zinc chloride from PG statured solution vs zinc ethyl maltol from PEG400 saturated solutions were investigated (zinc ethyl maltol in PEG400 100 mg/mL). In addition, the permeation of the zinc ethyl complex from PEG400 saturated solution and PEG400:PEG1000 (8:2% w/w) was compared. For the PEG mixture, the zinc ethyl maltol donor was prepared by dissolving 60 mg of the complex in 3 mL of methanol and 1 mL of 80% w/w PEG400:20% w/w PEG 1000 then added. The solution was left overnight to allow the evaporation of methanol.
Permeation studies were conducted using previously validated Franz cell method based on the principles of the FDA, SUPAC-SS guidelines [FDA (CDER), 1997, Guidance for industry—SUPAC-SS Non-sterile Semisolid Dosage Form, Scale-up and post-approval changes: chemistry, manufacturing, and controls; in vitro release testing and in vivo bioequivalence documentation](FIG. 4). On the day of the experiment, the porcine skin was defrosted and either prepared as full-thickness sheets but removing the fat or dermatome to a 1 mm thickness (Nouvag, AG). The tissue was cut into 34 mm circles to allow an exposure area of 2.19±0.21 cm^2 and positioned between donor and receiver compartments of Franz diffusion cells. Each piece of skin was sealed between the two compartments using parafilm (Bemis Company, Neenah, WI). A 12 mm magnetic stir bar was placed into the receiver compartment of each Franz cell. The receiver compartment was loaded with 50 mM phosphate-buffered saline (pH 7.4). The cell sealing was verified by Franz cell inversion (6 times) and monitoring solvent back diffusion. The temperature of the Franz diffusion was set at 37° C. in a water bath to reach a skin temperature of 32° C. After 1 h equilibration at 37° C. in the water bath, 1 mL of receiver fluid was withdrawn (time point=0 min), and a fresh receiver solution was replaced into the cell to keep the volume consistent. Each formulation (1 mL) was applied in the donor compartment that was then covered with parafilm to avoid evaporation. After 24 h, the receiver fluid was collected and analysed by HPLC.
At the end of the permeation studies, the Franz cells were dismantled. The donor solutions were collected from each cell and transferred into 5-mL glass bottles containing 2 mL of PDCA as extraction fluid. This step was followed by wiping the skin surface and the donor compartment with two wet (wetted with extraction fluid) and then two dry cotton buds. The skin's permeation area was then cut into small pieces by scalpels and placed into a 5 mL glass bottle containing 4 mL of extraction fluid. All skin samples were kept at the bench with extraction fluid for 1 hour. This step was followed by separating each vial's content (cut skin and extraction fluid) into 2 mL Eppendorf tubes that were then loaded in TissuLyser machine for 20 minutes. Samples were then centrifuged for 15 minutes at 13,000 rpm. The content of each Eppendorf tube was filtered using 0.45 µm syringe filters, collected, and analysed by HPLC.

SMILES: O=c1cc(CO)occ1[O-].O=c1cc(CO)occ1[O-].O=c1cc(CO)occ1[O-].[Fe+3] [Iron kojic, iron kojic acid]
- compatibility with adhesives [1]: only compatible with DURO-TAK 9301
- Solubility in DURO-TAK 9301 patch ([1]; drug loading 4%, 2 mg PG): Clear
- Solubility in DURO-TAK 9301 patch ([1]; drug loading 4%, no permeation enhancer): Clear
- Solubility in DURO-TAK 9301 patch ([1]; drug loading 7%, 8 mg Maltol): Precipitated
- Solubility in DURO-TAK 9301 patch ([1]; drug loading 7.5%, 4 mg PG): Precipitated
- Solubility in DURO-TAK 9301 patch ([1]; drug loading 8%, no permeation enhancer): Precipitated
- Solubility in DURO-TAK 9301 patch ([1]; drug loading 10%, 5.5 mg PG): Precipitated
- Solubility in DURO-TAK 9301 patch ([1]; drug loading 10%, 5.5 mg Transcutol): Precipitated
- Solubility in DURO-TAK 9301 patch ([1]; drug loading 10%, no permeation enhancer): Precipitated
- (maximum) complex loading achieved in adhesive ([1]; methanol stock solution 10 mg/mL): 4%
- complex loading achieved in adhesive patch ([1]; methanol stock solution 18 mg/mL): 8.5%
- Solubility of complex (visual) ([2]; Chloroform): <6 mg/mL Iron kojic*
- Solubility of complex (visual) ([2]; Ethyl acetate): <6 mg/mL Iron kojic*
- Solubility of complex (visual) ([2]; Glycerol): <6 mg/mL Iron kojic*
- Solubility of complex (visual) ([2]; Hexane): <6 mg/mL Iron kojic*
- Solubility of complex (visual) ([2]; Methanol): ≥18 mg/mL Iron kojic*
- Solubility of complex (visual) ([2]; Oleic acid): <6 mg/mL Iron kojic*
- Solubility of complex (visual) ([2]; PEG400): <6 mg/mL Iron kojic*
- Solubility of complex (visual) ([2]; PG): ≥8 mg/mL Iron kojic*
- Solubility of complex (visual) ([2]; Propanol): <6 mg/mL Iron kojic*
- Solubility of complex (visual) ([2]; Transcutul): ≥ 8 mg/mL Iron kojic*
- Solubility of complex (visual) ([2]; Triaceten): <6 mg/mL Iron kojic*
- deposition compared to existing commercial iron transdermal patch [3]: no significant difference

SMILES: CCc1occc(=O)c1[O][Zn][O]c1c(CC)occc1=O [Zinc Ethyl Maltol, zinc ethyl maltol]
- Elemental zinc solubility evaluated by HPLC ([4]; solvent PEG400): 6600 µg/mL
- Elemental zinc solubility evaluated by HPLC ([4]; solvent PG): 2100 µg/mL
- Elemental zinc solubility evaluated by HPLC ([4]; solvent Transcutol): 6000 µg/mL
- permeation of elemental zinc [5]: 173.6 μg/cm^2
- Solubility in PEG400:PEG1000 ([6]; 60 mg, 1 mL PEG400:PEG1000 (2% w/w:8% w/w)): Not soluble
- Solubility in PEG400:PEG1000 ([6]; 60 mg, 1 mL PEG400:PEG1000 (6% w/w:4% w/w)): Not soluble
- Solubility in PEG400:PEG1000 ([6]; 60 mg, 1 mL PEG400:PEG1000 (8% w/w:2% w/w)): Soluble
- Solubility in PEG400:PEG1000 ([6]; 80 mg, 1 mL PEG400:PEG1000 (6% w/w:4% w/w)): Not soluble
- Solubility in PEG400:PEG1000 ([6]; 80 mg, 1 mL PEG400:PEG1000 (8% w/w:2% w/w)): Not soluble
- Solubility in PEG400:PEG1000 ([6]; 100 mg, 1 mL PEG400:PEG1000 (6% w/w:4% w/w)): Not soluble
- Solubility in PEG400:PEG1000 ([6]; 100 mg, 1 mL PEG400:PEG1000 (8% w/w:2% w/w)): Not soluble
- Solubility in PEG400:PEG1000 ([6]; 120 mg, 1 mL PEG400:PEG1000 (6% w/w:4% w/w)): Not soluble
- Solubility in PEG400:PEG1000 ([6]; 120 mg, 1 mL PEG400:PEG1000 (8% w/w:2% w/w)): Not soluble
- maximum solubility of zinc ethyl maltol complex ([6]; PEG400): 30000 µg/mL
- elemental zinc achieved in supersaturated solution ([6]; supersaturated solution based on PEG400/PG6000): 28.8 mg/mL
- Solubility in DURO-TAK 9301 ([7]; drug loading 5%, no Transcutol): Not Soluble
- Solubility in DURO-TAK 9301 ([7]; drug loading 7.4%, Transcutol 12.5 mg): Soluble
- Solubility in DURO-TAK 9301 ([7]; drug loading 7.5%, no Transcutol): Not Soluble
- Solubility in DURO-TAK 9301 ([7]; drug loading 10%, no Transcutol): Not Soluble
- Solubility in DURO-TAK 9301 ([7]; drug loading […], no Transcutol): Not Soluble
- transdermal permeation of elemental zinc ([8]; 1 mL PG solution, 24 h): 4.85 µg/cm^2
- permeation of elemental zinc ([8]; solution in PG ([…])): 41 μg/cm^2
- daily dose delivered by the solution ([8]; solution, extrapolated): approximately 2 mg
- elemental zinc passed through the skin ([8]; supersaturated solution (conclusions)): 237.93 μg/cm^2
- elemental zinc permeated through the skin ([8]; supersaturated solution in PEG400:PEG1000 (8% w/w:2% w/w), 24 h): 238 µg/cm^2
- elemental zinc skin deposition ([8]; vehicle PEG400, 24 h): 44.84
- transdermal permeation of elemental zinc ([8]; vehicle PEG400, 24 h): 174 µg/cm^2
- transdermal permeation compared to zinc chloride ([8]; zinc ethyl maltol in PEG400 vs zinc chloride in PG): 4.8 fold
